Measured values as given in patent publication US20230331803A1, “CO-AGONISTS OF THE GLP-1 AND AMYLIN RECEPTORS” (priority 2020, published 2023).
Like-named read-outs stand apart in the source and are kept apart here. Starred links: 1 amine or outer side, 2 acyl side, 3 side chain; linkers in the order of their positions; H or OH if unused. Non-standard residues stand in square brackets, D forms with d. Groups on a side chain read outwards from the residue. *: point of attachment. Butyryl(4-SO2NHCO(CH2)16Tz) = O=C(CCCCCCCCCCCCCCCCc1nnn[nH]1)NS(=O)(=O)CCCC(=O)*; Decanoyl(10-(4-HOOC-PhO)) = O=C(O)c1ccc(OCCCCCCCCCC(=O)*)cc1; C20 diacid = O=C(O)CCCCCCCCCCCCCCCCCCC(=O)*; C18 diacid = O=C(O)CCCCCCCCCCCCCCCCC(=O)*; C16 diacid = O=C(O)CCCCCCCCCCCCCCC(=O)*; γGlu = O=C(O)[C@H](CCC(=O)[*:2])N[*:1]; AEEA = NCCOCCOCC(=O)O; Aib = CC(C)(N)C(=O)O

What was measured:
[1] = target: T1, human GLP-1 receptor (Homo sapiens, UniProt P43220); experiment: Human GLP-1 receptor in vitro potency assay (CRE-luciferase reporter, BHK cells); assay type: cell-based
T1 construct: expressed in transfected cells; host or cells: BHK (Baby Hamster Kidney) cells, clone BHK 467-12A KZ-10, stably transfected, with CRE-luciferase reporter
Method: It is thus possible to measure GLP-1 receptor activity using a CRE-luciferase reporter gene introduced into Baby Hamster Kidney (BHK) cells co-expressing the GLP-1 receptor.
Cells were aliquoted and stored at -180° C. until use.
Plates were sealed and incubated at room temperature with gentle shaking for 30 minutes while protected from light. Luminescence was detected on a luminescence plate reader e.g. a Synergy 2 (BioTek).

[2] = target: T2, human amylin receptor (hAmyR3) (Homo sapiens, UniProt O60896+P30988); experiment: Human amylin receptor in vitro potency assay (CRE-luciferase reporter, BHK cells); assay type: cell-based;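 note: BHK cells expressing human calcitonin receptor plus RAMP3 (amylin-3 receptor) with a CRE-luciferase reporter, agonist activity read as luminescence from cAMP-driven transcription, 7-point serial dilutions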
T2 construct: host or cells: BHK cells (Hollex-1 line: human calcitonin receptor (a) + CRE-Luc), further transfected with human RAMP3

[3] = Table 4a, BHK cells expressing human GLP-1R, CRE-Luc, 3 hours, read-out: Human GLP-1R potency [EC50 (pM)]
[4] = Table 4a, BHK hAmyR3/CRE-Luc cells, 3 hours, read-out: Human AmyR3 potency [EC50 (pM)]

T2 sequence (P30988 25-474): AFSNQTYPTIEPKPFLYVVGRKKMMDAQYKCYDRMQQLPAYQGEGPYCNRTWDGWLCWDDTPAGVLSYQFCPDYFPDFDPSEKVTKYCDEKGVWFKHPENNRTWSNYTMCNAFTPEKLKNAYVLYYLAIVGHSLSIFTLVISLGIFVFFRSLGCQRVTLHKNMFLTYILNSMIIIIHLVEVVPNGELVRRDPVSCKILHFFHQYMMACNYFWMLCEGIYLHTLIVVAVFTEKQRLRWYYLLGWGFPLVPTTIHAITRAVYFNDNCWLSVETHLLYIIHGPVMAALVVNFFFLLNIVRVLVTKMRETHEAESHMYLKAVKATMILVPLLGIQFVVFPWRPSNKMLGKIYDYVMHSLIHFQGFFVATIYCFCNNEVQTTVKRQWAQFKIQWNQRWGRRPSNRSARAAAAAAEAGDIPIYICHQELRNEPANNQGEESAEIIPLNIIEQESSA
T2 sequence (O60896 24-148): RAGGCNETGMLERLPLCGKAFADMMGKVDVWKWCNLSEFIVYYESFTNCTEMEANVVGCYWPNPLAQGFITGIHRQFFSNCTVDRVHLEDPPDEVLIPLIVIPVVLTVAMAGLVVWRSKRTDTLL
T1 sequence (P43220 24-463): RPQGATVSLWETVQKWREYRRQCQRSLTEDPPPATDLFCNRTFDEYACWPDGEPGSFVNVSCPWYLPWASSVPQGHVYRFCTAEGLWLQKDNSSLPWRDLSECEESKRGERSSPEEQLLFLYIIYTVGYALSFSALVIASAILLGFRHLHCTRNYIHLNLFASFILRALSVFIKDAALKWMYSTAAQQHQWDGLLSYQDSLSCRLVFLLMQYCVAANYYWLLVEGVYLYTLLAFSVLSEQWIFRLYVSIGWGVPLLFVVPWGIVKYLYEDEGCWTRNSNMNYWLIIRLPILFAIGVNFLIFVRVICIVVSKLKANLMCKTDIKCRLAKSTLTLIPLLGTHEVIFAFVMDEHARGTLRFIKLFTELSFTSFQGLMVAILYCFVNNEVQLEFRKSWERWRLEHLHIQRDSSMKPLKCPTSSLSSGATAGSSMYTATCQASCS

## CC[C@H](C)[C@H](NC(=O)[C@H](Cc1ccccc1)NC(=O)[C@H](CCC(=O)O)NC(=O)[C@H](CCCNC(=N)N)NC(=O)[C@H](C)NC(=O)[C@H](C)NC(=O)[C@H](CCC(N)=O)NC(=O)[C@H](CCC(=O)O)NC(=O)[C@H](CCC(=O)O)NC(=O)[C@H](CC(C)C)NC(=O)[C@H](Cc1ccc(O)cc1)NC(=O)[C@H](CO)NC(=O)[C@H](CO)NC(=O)[C@@H](NC(=O)[C@H](CC(=O)O)NC(=O)[C@H](CO)NC(=O)[C@@H](NC(=O)[C@H](Cc1ccccc1)NC(=O)[C@@H](NC(=O)CNC(=O)[C@H](CCC(=O)O)NC(=O)C(C)(C)NC(=O)CCc1c[nH]cn1)[C@@H](C)O)[C@@H](C)O)C(C)C)C(=O)N[C@@H](C)C(=O)N[C@@H](Cc1c[nH]c2ccccc12)C(=O)N[C@@H](CC(C)C)C(=O)N[C@H](C(=O)N[C@@H](CCCNC(=N)N)C(=O)NCC(=O)N[C@@H](CCCNC(=N)N)C(=O)N[C@@H](CCCCNC(=O)CCCS(=O)(=O)NC(=O)CCCCCCCCCCCCCCCCc1nnn[nH]1)C(=O)N[C@@H](CCC(=O)O)C(=O)N[C@@H](C)C(=O)N[C@@H](CO)C(=O)N[C@@H](CCC(=O)O)C(=O)N[C@@H](CC(C)C)C(=O)N[C@@H](CO)C(=O)N[C@H](C(=O)N[C@@H](C)C(=O)N[C@@H](C)C(=O)N[C@@H](CC(C)C)C(=O)NCC(=O)N[C@@H](CCCNC(=N)N)C(=O)N[C@@H](CC(C)C)C(=O)N[C@@H](CO)C(=O)N[C@@H](C)C(=O)N[C@@H](CCC(=O)O)C(=O)N[C@@H](CC(C)C)C(=O)N[C@@H](Cc1c[nH]cn1)C(=O)N[C@@H](CCC(=O)O)C(=O)N[C@@H](CC(C)C)C(=O)N[C@@H](C)C(=O)N[C@H](C(=O)N[C@@H](CC(C)C)C(=O)N1CCC[C@H]1C(=O)N[C@@H](CCCNC(=N)N)C(=O)N[C@H](C(=O)N[C@@H](CCC(=O)O)C(=O)N[C@H](C(=O)NCC(=O)N[C@@H](CO)C(=O)NCC(=O)N[C@@H](CO)C(=O)N1CCC[C@H]1C(N)=O)[C@@H](C)O)[C@@H](C)O)[C@@H](C)O)[C@@H](C)O)C(C)C [Compound 0124]
[1]; [3]
  EC50: 27.9 pM
[2]; [4]
  EC50: 24.4 pM

## HWEGTFTSD-K([2-[2-[2-[[2-[2-[2-[[(4S)-4-Carboxy-4-[[4-[(19-Carboxynonadecanoylamino)Methyl]Cyclohexanecarbonyl]Amino]Butanoyl]Amino]Ethoxy]Ethoxy]Acetyl]Amino]Ethoxy]Ethoxy]Acetyl])-SSYLEEQAAREFIEWLVRGRGEASELSTAALGRLSAELHELATLPRTETGSGSP-amide [Compound 0272]
[1]; [3]
  EC50: 9.2 pM
[2]; [4]
  EC50: 11.3 pM

## H-HGEGTFTSDVSSYLEEQAARK([AEEA-AEEA-γGlu-C16 diacid])FIEWLVRGK([AEEA-AEEA-γGlu-C16 diacid])GEGGEASELSTAALGRLSAELHELATLPRTETGSGSP-NH2 [Compound 0087]
[1]; [3]
  EC50: 23.8 pM
[2]; [4]
  EC50: 97.9 pM

## H-H[Aib]EGTFTSDVSSYLEEQAAREFIAWLVK([AEEA-AEEA-γGlu-C18 diacid])GRGGGGGEASELSTAALGRLSAELHELATLPRTETGSGSP-NH2 [Compound 0144]
[1]; [3]
  EC50: 7.1 pM
[2]; [4]
  EC50: 16.8 pM

## H-H[Aib]EGTFTSDVSSYLEEQAARK([γGlu-C18 diacid])FIAWLVRGRGGGGGGGGK([γGlu-C18 diacid])EASELSTAALGRLSAELHELATLPRTETGSGSP-NH2 [Compound 0160]
[1]; [3]
  EC50: 11.9 pM
[2]; [4]
  EC50: 27.3 pM

## CC[C@H](C)[C@H](NC(=O)[C@H](Cc1ccccc1)NC(=O)[C@H](CCCCNC(=O)COCCOCCNC(=O)COCCOCCNC(=O)CC[C@H](NC(=O)CCCCCCCCCCCCCCC(=O)O)C(=O)O)NC(=O)[C@H](CCCNC(=N)N)NC(=O)[C@H](C)NC(=O)[C@H](C)NC(=O)[C@H](CCC(N)=O)NC(=O)[C@H](CCC(=O)O)NC(=O)[C@H](CCC(=O)O)NC(=O)[C@H](CC(C)C)NC(=O)[C@H](Cc1ccc(O)cc1)NC(=O)[C@H](CO)NC(=O)[C@H](CO)NC(=O)[C@@H](NC(=O)[C@H](CC(=O)O)NC(=O)[C@H](CO)NC(=O)[C@@H](NC(=O)[C@H](Cc1ccccc1)NC(=O)[C@@H](NC(=O)CNC(=O)[C@H](CCC(=O)O)NC(=O)C(C)(C)NC(=O)[C@@H](N)Cc1c[nH]cn1)[C@@H](C)O)[C@@H](C)O)C(C)C)C(=O)N[C@@H](CCC(=O)O)C(=O)N[C@@H](Cc1c[nH]c2ccccc12)C(=O)N[C@@H](CC(C)C)C(=O)N[C@H](C(=O)N[C@@H](CCCNC(=N)N)C(=O)NCC(=O)N[C@@H](CCCCNC(=O)COCCOCCNC(=O)COCCOCCNC(=O)CC[C@H](NC(=O)CCCCCCCCCCCCCCC(=O)O)C(=O)O)C(=O)NCC(=O)N[C@@H](CCC(=O)O)C(=O)NCC(=O)N[C@@H](CCC(N)=O)C(=O)N[C@@H](CCC(=O)O)C(=O)N1CCC[C@H]1C(=O)NCC(=O)NCC(=O)N[C@@H](C)C(=O)N[C@@H](CO)C(=O)N[C@@H](CCC(=O)O)C(=O)N[C@@H](CC(C)C)C(=O)N[C@@H](CO)C(=O)N[C@H](C(=O)N[C@@H](C)C(=O)N[C@@H](C)C(=O)N[C@@H](CC(C)C)C(=O)NCC(=O)N[C@@H](CCCNC(=N)N)C(=O)N[C@@H](CC(C)C)C(=O)N[C@@H](CO)C(=O)N[C@@H](C)C(=O)N[C@@H](CCC(=O)O)C(=O)N[C@@H](CC(C)C)C(=O)N[C@@H](Cc1c[nH]cn1)C(=O)N[C@@H](CCC(=O)O)C(=O)N[C@@H](CC(C)C)C(=O)N[C@@H](C)C(=O)N[C@H](C(=O)N[C@@H](CC(C)C)C(=O)N1CCC[C@H]1C(=O)N[C@@H](CCCNC(=N)N)C(=O)N[C@H](C(=O)N[C@@H](CCC(=O)O)C(=O)N[C@H](C(=O)NCC(=O)N[C@@H](CO)C(=O)NCC(=O)N[C@@H](CO)C(=O)N1CCC[C@H]1C(N)=O)[C@@H](C)O)[C@@H](C)O)[C@@H](C)O)[C@@H](C)O)C(C)C [Compound 0105]
[1]; [3]
  EC50: 1.1 pM
[2]; [4]
  EC50: 30.8 pM

## CC[C@H](C)[C@H](NC(=O)[C@H](Cc1ccccc1)NC(=O)[C@H](CCC(=O)O)NC(=O)[C@H](CCCNC(=N)N)NC(=O)[C@H](C)NC(=O)[C@H](C)NC(=O)[C@H](CCC(N)=O)NC(=O)[C@H](CCC(=O)O)NC(=O)[C@H](CCC(=O)O)NC(=O)[C@H](CC(C)C)NC(=O)[C@H](Cc1ccc(O)cc1)NC(=O)[C@H](CO)NC(=O)[C@H](CO)NC(=O)[C@H](CCCCNC(=O)COCCOCCNC(=O)COCCOCCNC(=O)CC[C@H](NC(=O)[C@H]1CC[C@H](CNC(=O)CCCCCCCCCCCCCCCCCCC(=O)O)CC1)C(=O)O)NC(=O)[C@H](CC(=O)O)NC(=O)[C@H](CO)NC(=O)[C@@H](NC(=O)[C@H](Cc1ccccc1)NC(=O)[C@@H](NC(=O)CNC(=O)[C@H](CCC(=O)O)NC(=O)C(C)(C)NC(=O)[C@@H](N)Cc1c[nH]cn1)[C@@H](C)O)[C@@H](C)O)C(=O)N[C@@H](C)C(=O)N[C@@H](Cc1c[nH]c2ccccc12)C(=O)N[C@@H](CC(C)C)C(=O)N[C@H](C(=O)N[C@@H](CCCNC(=N)N)C(=O)NCC(=O)N[C@@H](CCCNC(=N)N)C(=O)NCC(=O)NCC(=O)NCC(=O)NCC(=O)N[C@@H](CCC(=O)O)C(=O)N[C@@H](C)C(=O)N[C@@H](CO)C(=O)N[C@@H](CCC(=O)O)C(=O)N[C@@H](CC(C)C)C(=O)N[C@@H](CO)C(=O)N[C@H](C(=O)N[C@@H](C)C(=O)N[C@@H](C)C(=O)N[C@@H](CC(C)C)C(=O)NCC(=O)N[C@@H](CCCNC(=N)N)C(=O)N[C@@H](CC(C)C)C(=O)N[C@@H](CO)C(=O)N[C@@H](C)C(=O)N[C@@H](CCC(=O)O)C(=O)N[C@@H](CC(C)C)C(=O)N[C@@H](Cc1c[nH]cn1)C(=O)N[C@@H](CCC(=O)O)C(=O)N[C@@H](CC(C)C)C(=O)N[C@@H](C)C(=O)N[C@H](C(=O)N[C@@H](CC(C)C)C(=O)N1CCC[C@H]1C(=O)N[C@@H](CCCNC(=N)N)C(=O)N[C@H](C(=O)N[C@@H](CCC(=O)O)C(=O)N[C@H](C(=O)NCC(=O)N[C@@H](CO)C(=O)NCC(=O)N[C@@H](CO)C(=O)N1CCC[C@H]1C(N)=O)[C@@H](C)O)[C@@H](C)O)[C@@H](C)O)[C@@H](C)O)C(C)C [Compound 0266]
[1]; [3]
  EC50: 6.3 pM
[2]; [4]
  EC50: 8.5 pM

## HWEGTFTSDVSSYLEEQAARK([AEEA-AEEA-γGlu-Decanoyl(10-(4-HOOC-PhO))])FIEWLVRGK([AEEA-AEEA-γGlu-Decanoyl(10-(4-HOOC-PhO))])GEGEASELSTAALGRLSAELHELATLPRTETGSGSP-NH2 [Compound 0099]
[1]
  EC50: 9.6 pM
[2]
  EC50: 44.9 pM

## H-H[Aib]EGTFTSDVSSYLEEQAAREFIAWLVRGRK([AEEA-AEEA-AEEA-AEEA-γGlu-C20 diacid])GGGGEASELSTAALGRLSAELHELATLPRTETGSGSP-NH2 [Compound 0663]
[1]; [3]
  EC50: 3.2 pM
[2]; [4]
  EC50: 12.6 pM

## H-H[Aib]EGTFTSDVSSYLEGQAAREFIAWLVRGK([AEEA-AEEA-γGlu-C18 diacid])GEGEGEEASELSTAALGRLSAELHELATLPRTETGSGSP-NH2 [Compound 0009]
[1]; [3]
  EC50: 7.9 pM
[2]; [4]
  EC50: 49.5 pM

## H-H[Aib]EGTFTSDVSSYLEEQAAREFIAWLVRGRGK(Butyryl(4-SO2NHCO(CH2)16Tz))GGGASELSTAALGRLSAELHELATLPRTETGSGSP-NH2 [Compound 0145]
[1]; [3]
  EC50: 11.9 pM
[2]; [4]
  EC50: 16.5 pM

## H-H[Aib]EGTFTSDVSSYLEGQAAK([AEEA-AEEA-γGlu-C18 diacid])EFIAWLVRGRGGGGEASELSTAALGRLSAELHELATLPRTETGSGSP-NH2 [Compound 0040]
[1]; [3]
  EC50: 20.7 pM
[2]; [4]
  EC50: 7.7 pM

## H-H[Aib]EGTFTSDVSSYLEEQAAREFIAWLVRGRK([AEEA-AEEA-γGlu-C18 diacid])GGGGSGGGEASELSTAALGRLSAELHELATLPRTETGSGSP-NH2 [Compound 0637]
[1]; [3]
  EC50: 1.9 pM
[2]; [4]
  EC50: 14.1 pM

## H-H[Aib]EGTFTSDVSSYLEEQAAREFIAWLVRGK([AEEA-AEEA-γGlu-C16 diacid])GGGGGEASELSTAALGRLSAELHELATLPRTETGK([AEEA-AEEA-γGlu-C16 diacid])GSP-NH2 [Compound 0285]
[1]; [3]
  EC50: 19 pM
[2]; [4]
  EC50: 78.9 pM
